Paper PMC6382696, “Drug Repurposing: The Anthelmintics Niclosamide and Nitazoxanide Are Potent TMEM16A Antagonists That Fully Bronchodilate Airways” (Frontiers in Pharmacology, 2019)
Where two headings read alike, the source gives them in different places. Blank lines part the entries; values can stand above or below the compound they belong to.

How the values were obtained:
[1] = tested on: human ASM cells; assay: Eact-induced depolarization of human ASM cells (FLIPR membrane potential); format: cell-based
Text: While the method above using histamine represents the standard protocol we used to evaluate compound effects in blocking pro-contractile depolarization of human BSMCs, for some experiments provided as Supplementary Figures 1–44 we employed the cholinergics methacholine or carbachol instead of histamine, or evaluated if the TMEM16A opener, Eact, could itself act like contractants to induce BSMC membrane depolarization.
3.31 Supplementary Figure 31
Supplementary Figure 31. The small molecule TMEM16A activator, Eact , induces depolarization of primary human airway smooth muscle cells like the contractant carbachol. Kinetic traces from the FLIPR membrane potential assay indicate Eact (A) and carbachol (B) elicit a concentration dependent depolarization of human ASM cells which were serum starved for 4 hours [prf SmGM overnight + 4h prf SmBM]. The potency for Eact depolarization of ASM cells isolated from a normal, asthmatic or COPD patient is shown in panel (C). The […]
report for activation of TMEM16A. RFU, relative fluorescence units. AUC, area under the curve.
(also on this page, place not known: ‘Eact’ Carbachol TMEM16A 3.0 µM A B C)
(1 picture or pasted object on this page, not shown here)

[2] = tested on: human bronchial epithelial ALI cultures; assay: Muc5AC secretion from human bronchial epithelial ALI cultures; format: cell-based; settings: 5 μM, 72 hours, p < 0.05
Procedure: (§1) 1.2 Effects of the TMEM16A opener Eact on leukotriene secretion and Muc5AC mucin production from human bronchial epithelial air-liquid interface cultures.
(§2) Normal, asthma and COPD human bronchial epithelial (HBE) cells were from Lonza (Walkersville, MD). Cells were grown on […] transparent PET transwell membranes insert (BD biosciences, San Diego). S-ALI air-liquid interface media (Lonza) was changed every other day until the cells reached confluence, at which time the apical medium was removed to establish an air liquid interface cultures. The basolateral medium was changed every other day. All experimentation was carried out on day 14-18 after ALI establishment. At this point, mature secretory cells are present in these differentiating cultures and the cells respond with maximal […] to IL-13 (10 ng/ml) (Peprotech, […]
(§3) Human ALI cultures from a normal donor were treated with Eact, Eact vehicle and 10 ng/ml IL13 in basolateral medium for 48 hrs.
(§4) After 48hr, 100 µl of basolateral medium were collected for determining leukotriene B4 and C4 secretion using ELISA kits from Enzo Life Sciences, Inc. and LSBio LifeSpan Biosciences Inc., respectively, and by following manufacture’s protocols. […]
(§5) Levels of Muc5AC protein in apical washes was then determined using a Muc5AC ELISA kit (Cosmo Bio USA, Carlsbad, CA) and following the manufacture’s protocol.

[3] = tested on: human bronchial epithelial ALI cultures; assay: Leukotriene (LTC4, LTB4) secretion from human bronchial epithelial ALI cultures; format: cell-based; settings: 48 hrs, p < 0.05
Procedure: as §1, §2, §3, §4, §5

[4] = tested on: TMEM16A; settings: ref Namkung et al., 2011; read-out: EC50 in activating TMEM16A; cited from earlier work
[5] = biological target: T1, TMEM16A (acd) (Homo sapiens, UniProt Q5XXA6); assay: QPatch whole-cell electrophysiology, HEK293 TMEM16A (acd); format: cell-based; settings: QPatch
T1 sequence (Q5XXA6 1-986): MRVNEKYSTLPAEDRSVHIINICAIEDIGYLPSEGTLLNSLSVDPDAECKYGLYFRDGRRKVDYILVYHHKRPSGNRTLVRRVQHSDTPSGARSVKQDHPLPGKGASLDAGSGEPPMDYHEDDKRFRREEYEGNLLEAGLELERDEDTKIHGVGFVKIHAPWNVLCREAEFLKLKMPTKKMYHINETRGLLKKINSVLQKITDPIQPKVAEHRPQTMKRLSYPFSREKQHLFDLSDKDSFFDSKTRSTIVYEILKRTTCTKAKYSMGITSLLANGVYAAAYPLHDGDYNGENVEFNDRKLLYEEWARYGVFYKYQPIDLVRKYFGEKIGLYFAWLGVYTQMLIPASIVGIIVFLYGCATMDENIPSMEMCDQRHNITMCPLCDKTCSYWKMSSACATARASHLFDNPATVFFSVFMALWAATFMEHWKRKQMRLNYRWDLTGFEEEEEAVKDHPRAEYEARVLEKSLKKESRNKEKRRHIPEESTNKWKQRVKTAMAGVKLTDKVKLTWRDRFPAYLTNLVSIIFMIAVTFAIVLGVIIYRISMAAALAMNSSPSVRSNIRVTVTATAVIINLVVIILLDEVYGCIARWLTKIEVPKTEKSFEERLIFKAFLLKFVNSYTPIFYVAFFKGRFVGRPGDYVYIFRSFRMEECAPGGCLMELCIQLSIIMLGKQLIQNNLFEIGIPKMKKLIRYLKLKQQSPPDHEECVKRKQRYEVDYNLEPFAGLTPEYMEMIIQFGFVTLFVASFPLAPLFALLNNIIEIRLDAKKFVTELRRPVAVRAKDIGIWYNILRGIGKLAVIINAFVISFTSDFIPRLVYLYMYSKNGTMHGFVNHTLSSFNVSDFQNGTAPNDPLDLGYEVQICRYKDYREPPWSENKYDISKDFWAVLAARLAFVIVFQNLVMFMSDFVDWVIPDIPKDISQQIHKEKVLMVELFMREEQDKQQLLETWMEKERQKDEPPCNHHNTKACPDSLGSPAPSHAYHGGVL
Text: HEK293 cells stably expressing the TMEM16A (acd) variant were purchased from SB Drug Discovery. The HEK293 TMEM16A (abc) stable cell line was from ChanTest and COLO-205 cells were purchased from ATCC. The same standard buffers and recording conditions listed below were used for QPatch studies on all three cell lines.
Recording Solutions: were made weekly as below and stored at room temperature until used. It is recommended not to add ATP to internal solution until immediately before using on the QPatch. The external buffer (in mM) was 140 NaCl, 4 KCl, 2 CaCl2, 1 MgCl2, 10 HEPES, 10 Glucose, pH7.4, while the internal buffer (in mM) was 110 CsCl, 20 TEA-Cl, 5.374 CaCl2, 1.75 MgCl2, 10 EGTA, 10 HEPES, 4 Na2ATP, pH 7.2.
Once established in whole-cell configuration, cells were clamped to a holding potential (Vhold) of 0 mV on 48 well single hole patch plate. A standardized IV protocol was used to elicit ionic current through the TMEM16A chloride channel at 20 s intervals. Steady-state voltage pulses were from −100 mV to +100 mV in +20 mV steps for a duration of 500 ms. After each pulse the voltage was returned to −100 mV for 50 ms to obtain tail currents, and then returned to the holding potential of 0 mV until the beginning of the next sweep. […] This ensures a minimum of 60 s per concentration incubation before measuring current block. Currents were acquired at 10 kHz and filtered at 2 kHz, leak subtraction and Rseries were disabled. A 1 MΩ minimum resistance was set because cells are held in an open channel state and therefore resistance is low.
A cumulative concentration response was measured where each cell is exposed to five concentrations of test article with a dilution factor of 1:5 (e.g., 0.048, 0.24, 1.2, 6, and 30 μM). Cells were recorded for ∼60 s per solution/compound addition. Initially, external solution is applied twice to allow currents to stabilize. Then vehicle (from the saline reservoir) is added twice to monitor any effect 0.3% DMSO might have on currents. This leads directly into the concentration runs by applying Concentration 1 (single addition) for 1 min. Concentration 2 is then applied for the subsequent minute, etc. Recovery/washout was monitored for a final minute with a final external solution addition.
[…] […] Each cell’s current magnitude was then normalized to itself at the initial 0.3% vehicle control period prior to compound application. This step is to account for differences in current size for each cell. Normalized responses to test article were plotted against their concentrations to reveal a concentration-inhibition plot.
A Normalized Group Hill fit was then performed on the plotted results to yield a pooled IC50 value, reconstructed from a minimum of two cells/concentration. The baseline response as well as the full response were constrained to 1 and 0, respectively.

[6] = tested on: cytochrome P450 enzymes; set-up: method as in White, 2004; Anderson and Curran, 2007; Rossignol, 2014; settings: ref White, 2004; Anderson and Curran, 2007; Rossignol, 2014; cited from earlier work
[7] = biological target: T2, hTMEM16A (abc) (Homo sapiens, UniProt Q5XXA6, DEL476-501); assay: medchem TMEM16A halide-sensitive YFP assay, 22-point dose-response; format: cell-based; set-up: expressed in transfected cells
T2 sequence (Q5XXA6 with tags, fused parts or gaps isoform Q5XXA6-5 DEL539-564): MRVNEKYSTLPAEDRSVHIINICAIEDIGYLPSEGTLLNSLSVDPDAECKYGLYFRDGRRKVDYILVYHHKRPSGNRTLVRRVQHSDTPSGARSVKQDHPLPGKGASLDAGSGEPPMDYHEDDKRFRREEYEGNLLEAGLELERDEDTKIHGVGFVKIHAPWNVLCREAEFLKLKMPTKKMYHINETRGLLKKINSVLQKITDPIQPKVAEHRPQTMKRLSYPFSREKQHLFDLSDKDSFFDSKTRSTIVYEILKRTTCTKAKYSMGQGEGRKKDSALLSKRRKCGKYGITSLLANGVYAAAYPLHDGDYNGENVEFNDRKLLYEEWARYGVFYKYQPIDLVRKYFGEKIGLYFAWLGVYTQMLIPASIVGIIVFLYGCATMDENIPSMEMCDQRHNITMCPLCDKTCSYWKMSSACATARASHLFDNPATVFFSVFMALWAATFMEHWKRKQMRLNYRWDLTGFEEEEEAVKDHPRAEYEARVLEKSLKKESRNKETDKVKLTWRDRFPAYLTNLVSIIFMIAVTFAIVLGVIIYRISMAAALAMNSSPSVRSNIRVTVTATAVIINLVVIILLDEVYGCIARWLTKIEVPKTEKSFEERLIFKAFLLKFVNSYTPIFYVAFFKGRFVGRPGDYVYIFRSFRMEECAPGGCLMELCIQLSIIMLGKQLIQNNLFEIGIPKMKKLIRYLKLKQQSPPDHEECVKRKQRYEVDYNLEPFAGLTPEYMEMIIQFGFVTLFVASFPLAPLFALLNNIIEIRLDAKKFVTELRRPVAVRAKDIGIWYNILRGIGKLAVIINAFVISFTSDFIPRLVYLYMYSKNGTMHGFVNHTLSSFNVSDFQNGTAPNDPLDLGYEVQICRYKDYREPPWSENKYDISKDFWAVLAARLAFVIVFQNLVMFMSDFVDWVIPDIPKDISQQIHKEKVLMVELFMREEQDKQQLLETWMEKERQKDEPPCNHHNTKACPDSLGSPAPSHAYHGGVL
Procedure: The TMEM16A HEK293T eYFP (H149Q, I153L) stable cell line for medchem support was generated by transfecting 10 μg of linearized hTMEM16A(abc) DNA constructs into HEK293T eYFP (H149Q,I153L) stable cells. The transfected cells were cultured under 200 μg/ml of hygromycin B selection for 20 days and the stable pool was single cell seeded in 96 well plate and duplicated plate were made after single cell clones were formed. YFP function assay were performed on duplicated plate and clones producing higher changes in fluorescence from the YFP assay were chosen for further expansion to form a stable cell line.
Plates were incubated for 24 h at 37°C with 5% CO2. On the assay day, medium was removed and replaced with 20 μl/well of assay buffer (Hank’s Balanced Salt Solution with 10 mM HEPES pH 7.4), 10 μl/well of 40x diluted compounds was added to assay plate and it was incubated at room temperature for 30 min, after which baseline fluorescence was read in the FLIPR instrument for 10 s. Then, 5 μl/well of a 3x trigger solution (24 mM iodide, 3 μM ionomycin in assay buffer) was added and the fluorescence kinetic trace was recorded for 2 min.

[8] = tested on: airways; set-up: method as in Stocks et al., 2014; settings: ref Stocks et al., 2014; cited from earlier work

EC50 ([1]; read-out: average EC50 for Eact induced ASM depolarization): 1600 nM
SMILES: COCCN(C(=O)c1cc(OC)c(OC)c(OC)c1)c1nc(-c2ccccc2)cs1 [Eact]
EC50 ([1]; cells from normal, asthmatic or COPD patient, read-out: average EC50 for depolarizing human ASM cells): 1000 to 3000 nM
increase of Muc5AC secretion [2]: 2–3 fold
increase of leukotriene (LTC4, LTB4) secretion [3]: 6–12 fold
EC50 [4]: 3000 nM

IC50 ([5]; outward current at +100 mV, 170 nM free intracellular calcium, ~60 s per concentration, read-out: TMEM16A Chloride Current (IC50)): 1260 ± 1310 nM
calcium-activated chloride current inhibited ([5]; maximum antagonist activity): Over 80%
IC50 ([7]; average, 22-point dose-response, iodide as permeant anion, read-out: TMEM16A eYFP Assay (IC50)): 1230 nM
scope of block of ionomycin-induced iodide eYFP quenching ([7]; up to 55.6 μM): partially inhibiting
SMILES: CC(=O)Oc1ccccc1C(=O)Nc1ncc([N+](=O)[O-])s1 [Nitazoxanide]
impact on cytochrome P450 enzymes [6]: no significant impact

SMILES: OCc1cc(C(O)CNCCCCCCOCCCCc2ccccc2)ccc1O (centres unmarked) [Salmeterol, salmeterol]
onset of action [8]: 90 min
